Results: patent US20160251342A1, “ALDEHYDE DERIVATIVE OF SUBSTITUTED OXAZOLIDINONES” (WANBURY LTD., priority 2012, published 2016)
Where “and” joins values, the source holds several entries; their conditions need not be identical. Equal entries are not always repeated.

How the values were obtained:
[1] = In vitro stability in rat plasma (LC-MS); format: in vitro ADME
Protocol: (§1) The final concentration of the test compound in the assay is 5 micromolar. […] C. The 100 microlitres of aliquot at time point was removed and diluted with ice cold acetonitrile containing IS (200 µL) to stop the reactions. Samples are centrifuged at 10,000 RPM for 5 minutes to precipitate proteins. Supernatants are transferred to micro centrifuge tubes and stored at −20° C. for analysis of LC/MS/MS. The percent parent remaining of the test substance is calculated as ratio of peak area at each time point to peak area ratio at zero min, multiplied by 100.
(§2) API 4000, ESI Agilent 1100 column: Gemini Nx 100 mm×4.6 mm 5.μ; column temperature: 30° C.; eluent A: 0.1% formic acid in water, eluent B: acetonitrile; gradient: 0-2.5 min 95% A, 5% B; 2.5-2.6 min 5% A, 95% B; 2.6-4.2 min 95% A, 5% B; flow rate: 0.8 ml/min; ESI. Q1:464.098, Q3:144.255

caco2 system = assay: Permeability in caco2 system; format: in vitro ADME; conditions: caco2, efflux >2
[2] = Permeability in caco2 system; format: in vitro ADME; conditions: human, Caco-2; caco2
[3] = In vitro stability in human plasma (LC-MS); format: in vitro ADME
Protocol: as §1, §2

[4] = Anticoagulant activity (PT, APTT) in human plasma; format: biochemical; conditions: 0.1 to 1.0 μg/mL, PT and APTT
Protocol: The anticoagulant action of the test substance (compound formula-B) and rivaroxaban was determined in vitro using human plasma. The human plasma used for this experiment was separated from the blood collected in sodium citrate as anticoagulant. The prothrombin time (PT) was determined by using a commercial test kit (Neoplastin from Stagid) and APTT was determined using (Synthasil kit by IL). […] Coagulation was then started by addition of thromboplastin, and time when coagulation occurred was determined. The concentration of test substance which effected a doubling of prothrombin time was determined.

plasma protein [5] = assay: Plasma protein binding (dialysis), mouse; format: in vitro ADME
Protocol: (§3) A compound solution (1 mM in DMSO) (5 μL), according to the invention is added to the respective plasma matrices of rat or human or mouse (1 ml).
(§4) Add 150 μl of phosphate buffer to receiving side of the dialysis well. […] Precipitate with Acetonitrile and dilute samples prior to analysis in 1.5 ml polypropylene tubes. Remove 50 μl from the sample side of dialysis well and add 50 μl of phosphate buffer+300 μl of acetonitrile containing IS. Remove 50 μl from the buffer side of the dialysis well and add 50 μl of respective matrix plasma+300 μl of ACN. Then vortexed and centrifuged for 5 min, and supernatant is taken and injected into LCMS.
(§5) Different test concentration ranging from 0.1 μM to 20 μM are made in methanol:water (90:10). Test solutions are added to the premixed matrix containing plasma:phosphate buffer (50:50). Precipitate with 300 μl of ice cold acetonitrile containing IS, vortexes and centrifuged. Supernatant is taken and injected into LCMS.
(§6) Percentage of plasma protein binding was obtained via Equation (2): % Fraction unbound=(concentration on the buffer side/concentration on the sample side)*100

[6] = Stability in buffer at various pH (LC-MS/MS); format: physicochemical; conditions: for Analyte Peak Area (counts): 24 hr room temperature, replicates, Standard average 39849828
Protocol: On completion of incubation period, the solution is centrifuged and supernatant is taken. To the supernatant, ice cold acetonitrile containing IS is added, vortexed and injected into LCMS/MS.
as §2
Prepared 0.1 mol of citric acid and 0.2 mol of di sodium hydrogen phosphate in water. Buffer pH 2.2, 4 and 7.8 are prepared using citric acid and disodium hydrogen phosphate by adjusting the pH with 0.1N HCl or 1N NaOHpH 7.4:8.89 g disodium hydrogen phosphate (Solution A) add to 1 litre of water, 1.5601 g sodium di-hydrogen phosphate (solution B) are made up to 1 liter with water; […] are mixed.

plasma protein [7] = assay: Plasma protein binding (dialysis), human; format: in vitro ADME
Protocol: as §3, §4, §5, §6

[8] = Intravenous and oral excretion profile in Wistar rats; format: in vivo; conditions: after i.v. administration, first measurement point
Protocol: On the day before administration of the substance, a catheter for obtaining blood is implanted in the jugular vein of the experimental animals (male Wistar rats, body weight 200-250 g) under Isoflurane. anesthesia.
Urine and faeces are taken collected from metabolic cages over the course of 144 h after administration of the substance. The administration volume is 10 ml/kg for oral and 1 ml/kg for IV in male Wistar rats. Intravenous administration is via a formulation of 2% N—N Dimethyl acetamide/ethanol 10%/PEG400(30%)/water for IV injection (58%) and via Tween80/PEG400/sterile water in the case of oral administration. Urine and faeces collection is 0-4, 4-8, 8-24, 24-48, 48-72, 72-96, 96-120, 120-144 in the case of IV and for oral administration.
Urine and faeces was processed and IS containing Acetonitrile is added to a defined urine/faeces and precipitated. After centrifugation, compound formula (B) and, where appropriate, known cleavage products of the compound formula (B) in the supernatant are determined quantitatively using a suitable LC/MS-MS method.
The measured urine and faeces concentrations are used to calculate parameters of the test substance and of the active ingredient compound (A) liberated there from, such as AUC and Cmax.
Acetonitrile containing IS is added to the study samples, calibration samples and QCs, and the protein is precipitated using acetonitrile. […]

Amount of test product detected (conversion to rivaroxaban from zero min) [1]: min. Neglible
Interpretation: Pgp substrate (caco2 system): observed to be a Pgp substrate.
Papp A→B [2]: 17.4 ×10⁻⁶ cm/s
Amount of test product detected (conversion to rivaroxaban from zero min) [3]: Neglible
Observation: amount of test product (plasma protein [5]): Not quantificable amount of test
Observation: formed Rivaroxaban bound to plasma protein (plasma protein [5]): moderate-High bound to plasma
Analyte Peak Area (counts) ([6]; pH 2.1 buffer): 20975674 counts and 35654402 counts
Analyte Peak Area (counts) ([6]; pH 4 buffer): 42841292 counts and 26917087 counts
Analyte Peak Area (counts) ([6]; pH 7.8 buffer): 35312 counts and 42503 counts
Stability in varying pH buffer conditions ([6]; varying pH buffers, rivaroxaban formation observed): degraded
Observation: amount of test product (plasma protein [7]): Not quantificable amount of test
Observation: formed Rivaroxaban bound to plasma protein (plasma protein [7]): Rivaroxaban found to be High
Detectability of unchanged test substance in urine and faeces [8]: no longer detectable
Compound: O=CN(C[C@H]1CN(c2ccc(N3CCOCC3=O)cc2)C(=O)O1)C(=O)c1ccc(Cl)s1 [compound formula (B), 5-chloro-N-formyl-N-({(5S)-2-oxo-3-[4-(3-oxomorpholin-4-yl)phenyl]-1,3-oxazolidin-5-yl}methyl)thiophene-2-carboxamide]
Anticoagulant activity [4]: significant anticoagulant activity
